Results on one compound are retold here after PMC6272185 (Molecules, 2015).

Series [1] concerns M. tuberculosis strain H37Rv in RAW 264.7 macrophages. Put plainly: Intracellular growth of M. tuberculosis H37Rv in infected macrophages (CFU). Type of series: cell-based, Mycobacterium tuberculosis. As to conditions: Mycobacterium tuberculosis, H37RV, 96 h, infected RAW 264.7, MOI 1:1, 4 days, Figure 3C. How it is done: (§1) RAW 264.7 macrophages were plated (1 × 10^5 cells/well) in antibiotic-free DMEM-F12 medium supplemented with 10% fetal bovine serum and incubated for 24 h. Prior to infection, mycobacterial suspensions were sonicated for 1 minute to disperse clumps and optical densities were adjusted to 0.1. The macrophage cultures were infected at a MOI of 1:1 (macrophage: bacterium). Phagocytosis was allowed to progress for 3 h. After 3 h, extracellular mycobacteria were removed by washing with PBS 1X and the infected cell monolayers were treated for 4 days with chalcone samples or rifampicin. Macrophage viability was monitored by LDH assay and was over 80% in all experiments. On day 4 after infection, cells were lysed cells with 1% saponin to release intracellular bacteria. Lysate aliquots were diluted 10-fold in PBS, plated in triplicates on 7H10 agar plates and incubated at 37 °C. After 21 days, total CFU were determined.

In series [2] the test system is TNF-α production by LPS-stimulated RAW 264.7 macrophages. Put plainly: Inhibition of TNF-α production by LPS-stimulated macrophages (ELISA). Type of series: cell-based, murine. As to conditions: Mus musculus, RAW264.7; LPS (1 µg/mL)-stimulated RAW 264.7, 24 h; mean ± SD, n = 3; read-out: IC50 TNF-α. (ELISA stands for enzyme-linked immunosorbent assay.)
Series [3] has as its system iNOS expression in RAW 264.7 macrophages. Put plainly: iNOS expression by western blot in LPS-stimulated macrophages. Type of series: cell-based, murine. To be noted: 20 µg/mL, LPS 1 µg/mL, 24 h. How it is done:
(§2) RAW 264.7 macrophages were plated in Petri dishes (2 × 10^7 cells·mL^−1) and incubated for 24 h at 37 °C in 5% CO2 atmosphere. […] The resulted cellular monolayers were washed with PBS 1×, scraped and resuspended in PBS 1×, transferred and centrifuged to obtain cell pellets. The cells were lysed in buffer (10% SDS, 20% glycerol, 5% 2-mercaptoethanol, 2% bromophenol blue and 1 M Tris HCl, pH 6.8, containing protease inhibitors). Protein concentrations were estimated by Bradford method. For western blot analysis, cellular extract samples (60 µg) were submitted to 10% SDS–polyacrylamide gel electrophoresis under […] conditions and transferred to nitrocellulose membranes (Amersham Pharmacia Biotech, Uppsala, Sweden). After blocking with PBS-T (0.5% Tween-20) containing 2.5% (w/v) bovine serum albumin, the membranes were incubated with antibodies against iNOS (1:1000) and COX-2 (1:500) for 1 h at room temperature. After incubation period, the membranes were washed followed by treatment with horseradish peroxidase-conjugated secondary antibody. The resulting membranes were developed using diaminobenzidine/H2O2 as a substrate for peroxidase. In all electrophoresis experiments, a protein standard ladder (Full Range Rainbow-GE Healthcare, Piscataway, NJ, USA) was used to estimate proteins molecular size. Protein bands densitometric analysis was performed using ImageJ software for Windows (NIH, Bethesda, MD, USA). The value for stimulated condition (LPS- treated cells) was set as 1 and other conditions were recalculated correspondingly to allow ratio comparisons.
(A western blot detects proteins with antibodies after separation by electrophoresis.)

The subject of the next series is M. tuberculosis M299. Kind of series: microbe, parasite or virus in culture. The format is cell-based, Mycobacterium tuberculosis. To be noted: Mycobacterium tuberculosis, M299, 120 h.
For the next series, the system named is M. tuberculosis H37Rv. Put plainly: microbe, parasite or virus in culture. The format is cell-based, Mycobacterium tuberculosis. As to conditions: Mycobacterium tuberculosis.
The subject of series [4] is NO production by LPS-stimulated RAW 264.7 macrophages. Put plainly: Inhibition of NO production by LPS-stimulated macrophages (Griess). Type of series: cell-based, murine. As to conditions: Mus musculus, RAW264.7, 24 h, LPS (1 µg/mL)-stimulated RAW 264.7, 24 h; mean ± SD, n = 3; read-out: IC50 NO. (Nitrite, measured by Griess reagent, commonly stands in for NO production.)

The test system of series [5] is IL-1β production by LPS-stimulated RAW 264.7 macrophages. Put plainly: Inhibition of IL-1β production by LPS-stimulated macrophages (ELISA). Type of series: cell-based, murine.
Series [6] concerns COX-2 expression in RAW 264.7 macrophages. Kind of series: COX-2 expression by western blot in LPS-stimulated macrophages. To be noted: 20 µg/mL, LPS 1 µg/mL, 24 h. Type of series: cell-based, murine. The procedure:
as §2

A further series has as its system M. bovis BCG. Put plainly: microbe, parasite or virus in culture. To be noted: Mycobacterium tuberculosis variant bovis BCG, BCG, 168 h. Type of series: cell-based, Mycobacterium bovis BCG.
The subject of series [7] is PGE2 production by LPS-stimulated RAW 264.7 macrophages. Put plainly: Inhibition of PGE2 production by LPS-stimulated macrophages (ELISA). The format is cell-based, murine. As to conditions: Mus musculus, RAW264.7, 24 h, read-out: IC50 PGE2.
Series [8] relates to RAW 264.7 macrophages infected with M. tuberculosis H37Rv. Kind of series: Toxicity for infected macrophages, LDH assay. To be noted: Mus musculus, RAW264.7, 96 h; infected RAW 264.7, 4 days treatment; Figure 3D. The format is cell-based, murine. How it is done: Cytotoxic effects of chalcone samples on RAW 264.7 cell viability in cultures stimulated with LPS were determined using the LDH (lactate dehydrogenase) release assay as previously described. Cytoplasmic enzyme LDH release into cell culture supernatants was detected using a commercial LDH kit (Doles, GO, Brazil). Cell death was expressed as percentage of LDH release, which was calculated using the following formula: percentage of LDH release = 100 × (test LDH release − spontaneous release)/(maximum release − spontaneous release). The maximum release was determined following dissolution of cell monolayers using 1% (vol/vol) Triton X-100. The spontaneous release was determined in supernatants from cultures incubated in the presence of LPS and DMSO, used as a solvent for chalcone samples.
as §1

Series [9] in a line: Macrophage cytotoxicity, LDH release assay. Type of series: cell-based, murine. As to conditions: mouse, RAW 264.7 macrophages stimulated with LPS; LPS-stimulated RAW 264.7, LDH release; mean ± SD, n = 3.
Method: Cytotoxic effects of chalcone samples on RAW 264.7 cell viability in cultures stimulated with LPS were determined using the LDH (lactate dehydrogenase) release assay as previously described [58]. Cytoplasmic enzyme LDH release into cell culture supernatants was detected using a commercial LDH kit (Doles, GO, Brazil). Cell death was expressed as percentage of LDH release, which was calculated using the following formula: percentage of LDH release = 100 × (test LDH release − spontaneous release)/(maximum release − spontaneous release). The maximum release was determined following dissolution of cell monolayers using 1% (vol/vol) Triton X-100. The spontaneous release was determined in supernatants from cultures incubated in the presence of LPS and DMSO, used as a solvent for chalcone samples.

SMILES strings stand for the structures. Converted amounts (≈) assume the structure as drawn. Like-named read-outs stand apart in the source and are kept apart here.

For orientation: IC50 means the midpoint of a concentration-inhibition curve. As for `O=C(/C=C/c1ccc(Cl)cc1)c1ccccc1` [Chalcone 3], the MIC50 was 12.3 ± 1 µM (≈ 2.99 µg/mL) in series [1]; 18.4 ± 3.9 µM (≈ 4.46 µg/mL) in the series with M. tuberculosis M299; 13 ± 3.3 µM (≈ 3.16 µg/mL) in the series on M. tuberculosis H37Rv (H37RV, 120 h, read-out: MIC50 M. tuberculosis H37Rv); 13 ± 3.3 µM (≈ 3.16 µg/mL) in the series on M. tuberculosis H37Rv (Table 5, same values as M. tuberculosis H37Rv in Table 3, read-out: MIC50); 20.7 ± 6.4 µM (≈ 5.02 µg/mL) with M. bovis BCG (read-out: MIC50 M. bovis BCG). In addition, the IC50 in series [2] stood at 60.5 ± 4.7 µM; in series [4], 31.9 ± 4.6 µM; in series [5] (Mus musculus, RAW264.7, 24 h, read-out: IC50 IL-1β) it was 46.6 ± 4.6 µM; in series [7], 19.9 ± 2.6 µM; in [8], 307 ± 5.1 µM; in series [9], 400 ± 4.9 µM. Also, in series [3], the “inhibition of iNOS expression” value is “almost completely inhibit”. In addition, the MIC90 in the series on M. tuberculosis M299 worked out at 373.9 ± 1.4 µM (≈ 90.7 µg/mL); in the series with M. tuberculosis H37Rv (H37RV, 120 h), 372.7 ± 3.6 µM (≈ 90.5 µg/mL); in the series on M. bovis BCG (read-out: MIC90 M. bovis BCG) it was 170 ± 5.4 µM (≈ 41.2 µg/mL). Besides, in series [5] (LPS-stimulated RAW 264.7), the “inhibition of IL-1β” value is reported as “potent inhibitors”. For the same compound, the “abrogation of COX-2 expression” value in [6] is given as “most potent in abrogation”.
